Structures are written as SMILES.

The assay deals with T1, Recombinant human HSP90α (Homo sapiens, UniProt P07900).
T1 construct: host or cells: E. coli
The assay is described as follows: Radioligand filter binding test with [3H]17AAG for the measurement of HSP90 inhibitors. As to conditions: competition with [3H]17AAG 0.08 μM; HSP90 1.5 μg/assay; 22° C., 30 min; read-out: IC50 (HSP90 inhibition). The source says:
Test Method for the Measurement of HSP90 Inhibitors
The binding of geldanamycin or 17-allylamino-17-demethoxygeldanamycin (17AAG) to HSP90 and competitive inhibition thereof can be utilised in order to determine the inhibitory activity of the compounds according to the invention (Carreras et al. 2003, Chiosis et al. 2002).
In the specific case, a radioligand filter binding test is used. The radioligand used here is tritium-labelled 17-allylaminogeldanamycin, [3H]17AAG. This filter binding test allows a targeted search for inhibitors which interfere with the ATP binding site.
Recombinant human HSP90α (E. coli expressed, 95% purity);
[3H]17AAG (17-allylaminogeldanamycin, [allylamino-2,3-^3H. Specific activity: 1.11×10^12 Bq/mmol (Moravek, MT-1717);
HEPES filter buffer (50 mM HEPES, pH 7.0, 5 mM MgCl2, BSA 0.01%)
Multiscreen FB (1 μm) filter plate (Millipore, MAFBNOB 50).
The 96-well microtitre filter plates are firstly irrigated and coated with 0.1% of polyethyleneimine.
The test is carried out under the following conditions:
Reaction temperature 22° C.
Reaction time: 30 min., shaking at 800 rpm
50 mM HEPES HCl, pH 7.0, 5 mM MgCl2, 0.01% (w/v) of BSA
At the end of the reaction, the supernatant in the filter plate is removed by suction with the aid of a vacuum manifold (Multiscreen Separation System, Millipore), and the filter is washed twice.
The filter plates are then measured in a beta counter (Microbeta, Wallac) with scintillator (Microscint 20, Packard).
“% of control” is determined from the “counts per minutes” values, and the IC-50 value of a compound is calculated therefrom.
In the case of `Nc1nc(C(=O)N2Cc3ccccc3C2)c2cc(-c3cc(F)c(F)cc3CN3CCCC3)ccc2n1`, the IC50 (in general, the concentration at which inhibition is half-maximal) lay in the range of 10 to 1000 nM.
As for `CCN(CC)Cc1ccccc1-c1ccc2nc(N)nc(C(=O)N3Cc4ccccc4C3)c2c1`, the IC50 fell in the range of 10 to 1000 nM.
In the case of `CN(Cc1ccccc1-c1ccc2nc(N)nc(C(=O)N3Cc4ccccc4C3)c2c1)C1CC1` it was 10 to 1000 nM; in that of `NCCCOCc1cc(F)c(F)cc1-c1ccc2nc(N)nc(C(=O)N3Cc4ccccc4C3)c2c1`, 10 to 1000 nM; in that of `CN1CCN(Cc2cc(F)ccc2-c2ccc3nc(N)nc(C(=O)N4Cc5ccccc5C4)c3c2)CC1`, 10 to 1000 nM.
Turning to `NCCC[C@H](N)C(=O)OCc1cc(F)c(F)cc1-c1ccc2nc(N)nc(C(=O)N3Cc4ccccc4C3)c2c1`, the IC50 was 10 to 1000 nM.
To `CC1CCCN1Cc1cc(F)c(F)cc1-c1ccc2nc(N)nc(C(=O)N3Cc4ccccc4C3)c2c1` (centres unmarked) belongs 10 to 1000 nM; to `CC1CCCN1Cc1cc(F)ccc1-c1ccc2nc(N)nc(C(=O)N3Cc4ccccc4C3)c2c1` (centres unmarked), 10 to 1000 nM.
In the case of `Nc1nc(C(=O)N2Cc3ccccc3C2)c2cc(-c3ccccc3CN3CCC(F)(F)C3)ccc2n1` it was 10 to 1000 nM; in that of `NC(=O)CNCc1ccccc1-c1ccc2nc(N)nc(C(=O)N3Cc4ccccc4C3)c2c1`, 10 to 1000 nM.
As to `Nc1nc(C(=O)N2Cc3ccccc3C2)c2cc(-c3ccccc3CN3CCC(CO)C3)ccc2n1` (centres unmarked), the IC50 lay in the range of 10 to 1000 nM.
For `CC(C)(C)C(=O)OCc1cc(F)c(F)cc1-c1ccc2nc(N)nc(C(=O)N3Cc4ccccc4C3)c2c1`, the IC50 lay in the range of 10 to 1000 nM.
In the case of `C[C@@H]1CCCN1Cc1ccccc1-c1ccc2nc(N)nc(C(=O)N3Cc4ccccc4C3)c2c1`, the IC50 was 10 to 1000 nM.
In the case of `NCc1cc(F)c(F)cc1-c1ccc2nc(N)nc(C(=O)N3Cc4ccccc4C3)c2c1`, the IC50 fell in the range of 10 to 1000 nM.
To `CCN(CC)Cc1ccc(F)cc1-c1ccc2nc(N)nc(C(=O)N3Cc4ccccc4C3)c2c1` belongs 10 to 1000 nM.
In the case of `CN(C)CCOCc1cc(F)c(F)cc1-c1ccc2nc(N)nc(C(=O)N3Cc4ccccc4C3)c2c1` it was 10 to 1000 nM.
For the molecule `CCN(C)Cc1ccccc1-c1ccc2nc(N)nc(C(=O)N3Cc4ccccc4C3)c2c1`, the IC50 fell in the range of 10 to 1000 nM.
To `Nc1nc(C(=O)N2Cc3ccccc3C2)c2cc(-c3ccccc3CN3CCC(N)C3)ccc2n1` (centres unmarked) belongs 10 to 1000 nM; to `Nc1nc(C(=O)N2Cc3ccccc3C2)c2cc(-c3ccccc3CN3CCCC3)ccc2n1`, 10 to 1000 nM; to `C[C@H]1CCCN1Cc1ccccc1-c1ccc2nc(N)nc(C(=O)N3Cc4ccccc4C3)c2c1`, 10 to 1000 nM.
Turning to `CC(C)(C)OC(=O)NCCCCCC(=O)OCc1cc(F)c(F)cc1-c1ccc2nc(N)nc(C(=O)N3Cc4ccccc4C3)c2c1`, the IC50 is 10 to 1000 nM.
In the case of `CN(Cc1cc(F)c(F)cc1-c1ccc2nc(N)nc(C(=O)N3Cc4ccccc4C3)c2c1)C(C)(C)C` it was 10 to 1000 nM; in that of `Nc1nc(C(=O)N2Cc3ccccc3C2)c2cc(-c3cc(F)c(F)cc3COCCOCCOCCO)ccc2n1`, 10 to 1000 nM.
To `CN(CCO)Cc1ccccc1-c1ccc2nc(N)nc(C(=O)N3Cc4ccccc4C3)c2c1` belongs 10 to 1000 nM; to `Nc1nc(C(=O)N2Cc3ccccc3C2)c2cc(-c3ccccc3CN3CCC(O)C3)ccc2n1` (centres unmarked), 10 to 1000 nM.
Regarding `CC(C)(C)NCc1ccccc1-c1ccc2nc(N)nc(C(=O)N3Cc4ccccc4C3)c2c1`, the IC50 fell in the range of 10 to 1000 nM.
In the case of `CN(C)CCCOCc1cc(F)c(F)cc1-c1ccc2nc(N)nc(C(=O)N3Cc4ccccc4C3)c2c1` it was 10 to 1000 nM; in that of `CN1CCN(Cc2cc(F)c(F)cc2-c2ccc3nc(N)nc(C(=O)N4Cc5ccccc5C4)c3c2)CC1`, 10 to 1000 nM; in that of `Nc1nc(C(=O)N2Cc3ccccc3C2)c2cc(-c3ccccc3CN3CCC(O)CC3)ccc2n1`, 10 to 1000 nM.
To `CC(C)(C)NCc1cc2c(cc1-c1ccc3nc(N)nc(C(=O)N4Cc5ccccc5C4)c3c1)OCO2` belongs 10 to 1000 nM; to `Nc1nc(C(=O)N2Cc3ccccc3C2)c2cc(-c3ccccc3CN3CC[C@H](F)C3)ccc2n1`, 10 to 1000 nM.
To `CC(C)(C)NCc1cc(F)ccc1-c1ccc2nc(N)nc(C(=O)N3Cc4ccccc4C3)c2c1` belongs 10 to 1000 nM; to `CC1CCCN1Cc1ccc(F)cc1-c1ccc2nc(N)nc(C(=O)N3Cc4ccccc4C3)c2c1` (centres unmarked), 10 to 1000 nM; to `Nc1nc(C(=O)N2Cc3ccccc3C2)c2cc(-c3ccccc3CNC3CC3)ccc2n1`, 10 to 1000 nM.
Consider `CC(C)(C)NCc1cc(F)c(F)cc1-c1ccc2nc(N)nc(C(=O)N3Cc4ccccc4C3)c2c1`, for which the IC50 lay in the range of 10 to 1000 nM.
`NOCc1cc(F)c(F)cc1-c1ccc2nc(N)nc(C(=O)N3Cc4ccccc4C3)c2c1`: the IC50 was in the range of 10 to 1000 nM.
As for `Nc1nc(C(=O)N2Cc3ccccc3C2)c2cc(-c3ccccc3CN3CCCC3C(=O)NCCO)ccc2n1` (centres unmarked), the IC50 is 10 to 1000 nM.
Take `Nc1nc(C(=O)N2Cc3ccccc3C2)c2cc(-c3cc(F)c(F)cc3COCCO)ccc2n1`: the IC50 fell in the range of 10 to 1000 nM.
To `NCCCCC(N)C(=O)OCc1ccc(F)cc1-c1ccc2nc(N)nc(C(=O)N3Cc4ccccc4C3)c2c1` (centres unmarked) belongs 10 to 1000 nM; to `NCCC(=O)OCc1cc(F)c(F)cc1-c1ccc2nc(N)nc(C(=O)N3Cc4ccccc4C3)c2c1`, 10 to 1000 nM.
To `Nc1nc(C(=O)N2Cc3ccccc3C2)c2cc(-c3ccccc3CN(CCO)CCO)ccc2n1` belongs 10 to 1000 nM.
To `CCN(CCO)Cc1ccc(F)cc1-c1ccc2nc(N)nc(C(=O)N3Cc4ccccc4C3)c2c1` belongs 10 to 1000 nM; to `NCCCC[C@H](N)C(=O)OCc1ccccc1-c1ccc2nc(N)nc(C(=O)N3Cc4ccccc4C3)c2c1`, 10 to 1000 nM.
For `NCCCC[C@H](N)C(=O)OCc1cc(F)c(F)cc1-c1ccc2nc(N)nc(C(=O)N3Cc4ccccc4C3)c2c1`, the IC50 was in the range of 10 to 1000 nM.
On to `Nc1nc(C(=O)N2Cc3ccccc3C2)c2cc(-c3ccccc3CNC3CCC3)ccc2n1`, for which the IC50 lay within 10 to 1000 nM.
In the case of `CCN(C)Cc1cc(F)c(F)cc1-c1ccc2nc(N)nc(C(=O)N3Cc4ccccc4C3)c2c1` it was 10 to 1000 nM; in that of `CC1CCC(C)N1Cc1ccccc1-c1ccc2nc(N)nc(C(=O)N3Cc4ccccc4C3)c2c1` (centres unmarked), 10 to 1000 nM.
Turning to `Nc1nc(C(=O)N2Cc3ccccc3C2)c2cc(-c3cc(F)c(F)cc3COC(=O)[C@@H]3CCCN3)ccc2n1`, the IC50 lay in the range of 10 to 1000 nM.
To `CCN(CCO)Cc1ccccc1-c1ccc2nc(N)nc(C(=O)N3Cc4ccccc4C3)c2c1` belongs 10 to 1000 nM; to `CN(C)CCC(=O)NCc1cc(F)c(F)cc1-c1ccc2nc(N)nc(C(=O)N3Cc4ccccc4C3)c2c1`, 10 to 1000 nM; to `CC(C)(C)NCc1ccc(F)cc1-c1ccc2nc(N)nc(C(=O)N3Cc4ccccc4C3)c2c1`, 10 to 1000 nM.
With `CN(C)CCC(=O)OCc1cc(F)c(F)cc1-c1ccc2nc(N)nc(C(=O)N3Cc4ccccc4C3)c2c1`, the IC50 was 10 to 1000 nM.
In the case of `Nc1nc(C(=O)N2Cc3ccccc3C2)c2cc(-c3cc(F)ccc3CN3CCC(O)CC3)ccc2n1` it was 10 to 1000 nM.
With `CC(C)(C)OP(=O)(OCc1cc(F)c(F)cc1-c1ccc2nc(N)nc(C(=O)N3Cc4ccccc4C3)c2c1)OC(C)(C)C`, the IC50 fell in the range of 10 to 1000 nM.
In the case of `Nc1nc(C(=O)N2Cc3ccccc3C2)c2cc(-c3cc(F)c(F)cc3COP(=O)(O)O)ccc2n1`, the IC50 was in the range of 10 to 1000 nM.
Consider `CC(C)CC(N)C(=O)OCc1cc(F)c(F)cc1-c1ccc2nc(N)nc(C(=O)N3Cc4ccccc4C3)c2c1` (centres unmarked), for which the IC50 fell in the range of 10 to 1000 nM.
`NCCC(=O)NCc1cc(F)c(F)cc1-c1ccc2nc(N)nc(C(=O)N3Cc4ccccc4C3)c2c1`: the IC50 lay within 10 to 1000 nM.
On to `CCN(C)Cc1ccc(F)cc1-c1ccc2nc(N)nc(C(=O)N3Cc4ccccc4C3)c2c1`, for which the IC50 is 10 to 1000 nM.
For the molecule `COc1cc(CO)c(-c2ccc3nc(N)nc(C(=O)N4Cc5ccccc5C4)c3c2)cc1OC`, the IC50 fell in the range of 1000 to 10000 nM.
To `CC1CCCN1Cc1ccccc1-c1ccc2nc(N)nc(C(=O)N3Cc4ccccc4C3)c2c1` (centres unmarked) belongs 10 to 1000 nM.
To `CNC(=O)C1CCCN1Cc1ccccc1-c1ccc2nc(N)nc(C(=O)N3Cc4ccccc4C3)c2c1` (centres unmarked) belongs 10 to 1000 nM; to `CC1CCC(C)N1Cc1cc(F)c(F)cc1-c1ccc2nc(N)nc(C(=O)N3Cc4ccccc4C3)c2c1` (centres unmarked), 10 to 1000 nM; to `CCN(CC)Cc1cc(F)c(F)cc1-c1ccc2nc(N)nc(C(=O)N3Cc4ccccc4C3)c2c1`, 10 to 1000 nM.
For the molecule `CC(C)(C)OC(=O)N1CCC[C@H]1C(=O)OCc1cc(F)c(F)cc1-c1ccc2nc(N)nc(C(=O)N3Cc4ccccc4C3)c2c1`, the IC50 was in the range of 10 to 1000 nM.
In the case of `CN1CCN(Cc2ccc(F)cc2-c2ccc3nc(N)nc(C(=O)N4Cc5ccccc5C4)c3c2)CC1` it was 10 to 1000 nM.
